Laboratory results as given in ChEMBL document CHEMBL4334471, “Discovery of 1,8-disubstituted-[1,2,3]triazolo[4,5-c]quinoline derivatives as a new class of Hippo signaling pathway inhibitors” (Bioorg Med Chem Lett, 2019).

Assays:
[1] = molecular target: Cyclin-dependent kinase-like 4 (Homo sapiens) (UniProt Q5MAI5); experiment: Inhibition of recombinant full length human CDKL4 assessed as residual activity at 10 uM in presence of [gamma-33ATP] by scintillation counting based radiometry assay relative to control
Chain of Cyclin-dependent kinase-like 4 (Homo sapiens) (Q5MAI5 whole entry): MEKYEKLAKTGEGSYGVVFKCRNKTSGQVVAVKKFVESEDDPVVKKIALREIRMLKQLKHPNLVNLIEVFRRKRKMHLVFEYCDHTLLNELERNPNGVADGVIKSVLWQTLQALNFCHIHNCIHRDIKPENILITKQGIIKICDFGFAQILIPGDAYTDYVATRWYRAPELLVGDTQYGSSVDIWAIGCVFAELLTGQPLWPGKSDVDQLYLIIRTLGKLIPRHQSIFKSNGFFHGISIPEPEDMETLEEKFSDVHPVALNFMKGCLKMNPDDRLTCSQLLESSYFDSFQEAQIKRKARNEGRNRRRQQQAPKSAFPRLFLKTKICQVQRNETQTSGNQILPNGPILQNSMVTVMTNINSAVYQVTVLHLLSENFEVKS

[2] = molecular target: BDNF/NT-3 growth factors receptor (Homo sapiens) (UniProt Q16620); experiment: Inhibition of recombinant human TRKB (455 to end residues) assessed as residual activity at 10 uM using poly(Glu, Tyr) 4:1 as substrate incubated for 40 mins in presence of [gamma33P]ATP by scintillation counting based radiometry assay relative to control
[3] = molecular target: Calcium/calmodulin-dependent protein kinase kinase 1 (Homo sapiens) (UniProt Q8N5S9); experiment: Inhibition of recombinant full length human CaMKK1 assessed as residual activity at 10 uM using […] incubated for 40 mins in presence of [gamma-33ATP] by scintillation counting based radiometry assay relative to control
[4] = test system: Mitogen-activated protein kinase 14 (Homo sapiens), Q16539 [T106M]; experiment: Inhibition of recombinant human full length SAPK2a T106M mutant assessed as residual activity at 10 uM using myelin basic protein as substrate incubated for 40 mins in presence of [gamma33P]ATP by scintillation counting based radiometry assay relative to control
[5] = molecular target: CDK3/Cyclin E (Homo sapiens) (UniProt P24864+Q00526); experiment: Inhibition of recombinant full length human CDK3/CyclinE assessed as residual activity at 10 uM using Histone H1 as substrate incubated for 40 mins in presence of [gamma-33ATP] by scintillation counting based radiometry assay relative to control; format: protein-complex assay
[6] = molecular target: Dual specificity protein kinase CLK2 (Homo sapiens) (UniProt P49760); experiment: Inhibition of recombinant human CLK2 (138 to end residues) assessed as residual activity at 10 uM using YRRAAVPPSPSLSRHSSPHQS(p)EDEEE as substrate incubated 40 mins in presence of [gamma-33ATP] by scintillation counting based radiometry assay relative to control
Mus musculus = species: Mus musculus; experiment: Inhibition of recombinant full-length mouse PI3K p110/p85 E542K mutant assessed as residual activity at 10 uM using phosphatidylinositol-4, 5-bisphosphate as substrate incubated for 40 mins in presence of [gamma33P]ATP by scintillation counting based radiometry assay relative to control
[7] = molecular target: Rhodopsin kinase GRK1 (Homo sapiens) (UniProt Q15835); experiment: Inhibition of recombinant full length human GRK1 assessed as residual activity at 10 uM using KKKKERLLDDRHD as substrate at 40 mins in presence of [gamma-33ATP] by scintillation counting based radiometry assay relative to control
[8] = molecular target: Serine/threonine-protein kinase Nek6 (Homo sapiens) (UniProt Q9HC98); experiment: Inhibition of recombinant human NEK6 (2 to end residues) assessed as residual activity at 10 uM using FLAKSFGSPNRAYKK as substrate measured after 40 mins in presence of [gamma33P]ATP by scintillation counting based radiometry assay relative to control
Chain of Serine/threonine-protein kinase Nek6 (Homo sapiens) (Q9HC98 whole entry): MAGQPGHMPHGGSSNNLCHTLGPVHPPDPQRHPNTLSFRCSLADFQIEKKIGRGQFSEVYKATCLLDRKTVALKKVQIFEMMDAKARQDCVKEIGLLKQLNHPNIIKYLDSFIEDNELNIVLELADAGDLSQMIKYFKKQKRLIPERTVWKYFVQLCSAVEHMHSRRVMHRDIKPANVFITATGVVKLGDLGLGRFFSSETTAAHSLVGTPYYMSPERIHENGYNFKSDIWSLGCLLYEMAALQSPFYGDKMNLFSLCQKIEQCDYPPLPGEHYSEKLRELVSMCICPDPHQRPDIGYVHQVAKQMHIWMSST

[9] = molecular target: Leukocyte tyrosine kinase receptor (Homo sapiens) (UniProt P29376); experiment: Inhibition of recombinant human LTK (450 to end residues) assessed as residual activity at 10 uM using GEEPLYWSFPAKK as substrate after 40 mins in presence of [gamma-33ATP] by scintillation counting based radiometry assay relative to control
[10] = test system: Tyrosine-protein kinase ABL1 (Homo sapiens), P00519 [Y253F]; experiment: Inhibition of human ABL1 Y253F mutant (27 to end residues) assessed as residual activity at 10 uM using EAIYAAPFAKKK as substrate incubated for 40 mins in presence of [gamma-33ATP] by scintillation counting based radiometry assay relative to control
[11] = molecular target: Serine/threonine-protein kinase pim-2 (Homo sapiens) (UniProt Q9P1W9); experiment: Inhibition of recombinant human Pim2 (2 to end residues) assessed as residual activity at 10 uM using RSRHSSYPAG as substrate incubated for 40 mins in presence of [gamma33P]ATP by scintillation counting based radiometry assay relative to control
Chain of Serine/threonine-protein kinase pim-2 (Homo sapiens) (Q9P1W9 whole entry, looked up): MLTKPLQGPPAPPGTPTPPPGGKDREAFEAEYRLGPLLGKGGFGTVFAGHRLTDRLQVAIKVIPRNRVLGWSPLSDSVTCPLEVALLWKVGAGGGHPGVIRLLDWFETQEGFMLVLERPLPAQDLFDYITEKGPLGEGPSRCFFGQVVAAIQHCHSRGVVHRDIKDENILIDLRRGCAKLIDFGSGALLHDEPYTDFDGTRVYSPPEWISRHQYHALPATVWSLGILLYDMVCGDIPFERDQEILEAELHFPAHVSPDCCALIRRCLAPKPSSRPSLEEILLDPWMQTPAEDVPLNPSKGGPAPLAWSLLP

[12] = molecular target: Ephrin type-B receptor 4 (Homo sapiens) (UniProt P54760); experiment: Inhibition of recombinant human EphB4 (561 to end residues) assessed as residual activity at 10 uM using poly(Glu, Tyr) 4:1 as substrate at 40 mins in presence of [gamma-33ATP] by scintillation counting based radiometry assay relative to control
[13] = test system: Receptor tyrosine-protein kinase erbB-2 (Homo sapiens), P04626 [G778D]; experiment: Inhibition of recombinant human ERBB2 G778D mutant (676 to end residues) assessed as residual activity at 10 uM using poly(Glu, Tyr) 4:1 as substrate at 40 mins in presence of [gamma-33ATP] by scintillation counting based radiometry assay relative to control
[14] = molecular target: Activin receptor type-1 (Homo sapiens) (UniProt Q04771); experiment: Inhibition of human ALK2 (147 to end residues) assessed as residual activity at 10 uM using casein as substrate incubated for 40 mins in presence of [gamma-33ATP] by scintillation counting based radiometry assay relative to control
[15] = test system: Mast/stem cell growth factor receptor Kit (Homo sapiens), P10721 [V654A]; experiment: Inhibition of recombinant human C-Kit V654A mutant (544 to end residues) assessed as residual activity at 10 uM poly(Glu, Tyr) 4:1 as substrate incubated 40 mins in presence of [gamma-33ATP] by scintillation counting based radiometry assay relative to control
Chain of Mast/stem cell growth factor receptor Kit (Homo sapiens), P10721 [V654A] (P10721 whole entry V654A): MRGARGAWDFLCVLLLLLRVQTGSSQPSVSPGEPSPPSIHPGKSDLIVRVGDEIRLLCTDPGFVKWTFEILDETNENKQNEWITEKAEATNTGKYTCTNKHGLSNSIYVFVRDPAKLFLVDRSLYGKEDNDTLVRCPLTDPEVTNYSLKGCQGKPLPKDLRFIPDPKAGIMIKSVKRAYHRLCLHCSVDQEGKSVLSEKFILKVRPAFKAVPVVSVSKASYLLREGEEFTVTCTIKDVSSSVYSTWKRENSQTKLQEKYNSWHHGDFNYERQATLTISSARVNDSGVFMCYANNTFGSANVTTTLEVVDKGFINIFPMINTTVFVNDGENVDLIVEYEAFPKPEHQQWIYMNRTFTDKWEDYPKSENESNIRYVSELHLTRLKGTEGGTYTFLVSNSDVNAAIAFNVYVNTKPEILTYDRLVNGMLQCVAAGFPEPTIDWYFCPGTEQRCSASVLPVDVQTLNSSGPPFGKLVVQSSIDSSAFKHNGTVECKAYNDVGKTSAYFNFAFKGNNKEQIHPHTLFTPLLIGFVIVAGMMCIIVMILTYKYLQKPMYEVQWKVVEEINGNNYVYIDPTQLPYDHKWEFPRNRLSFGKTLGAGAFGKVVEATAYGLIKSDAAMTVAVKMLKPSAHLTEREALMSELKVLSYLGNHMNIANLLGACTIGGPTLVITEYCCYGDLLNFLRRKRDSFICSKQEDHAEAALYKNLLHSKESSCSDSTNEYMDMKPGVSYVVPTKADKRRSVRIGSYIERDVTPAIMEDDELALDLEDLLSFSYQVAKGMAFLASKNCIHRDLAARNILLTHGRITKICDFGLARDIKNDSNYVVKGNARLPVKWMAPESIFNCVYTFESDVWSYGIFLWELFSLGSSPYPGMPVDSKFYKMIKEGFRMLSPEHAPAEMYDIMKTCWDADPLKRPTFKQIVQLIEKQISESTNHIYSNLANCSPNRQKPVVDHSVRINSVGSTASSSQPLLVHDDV

[16] = molecular target: Ribosomal protein S6 kinase alpha-5 (Homo sapiens) (UniProt O75582); experiment: Inhibition of recombinant human MSK1 (2 to end residues) assessed as residual activity at 10 uM using GRPRTSSFAEGKK as substrate incubated for 40 mins in presence of [gamma-33ATP by scintillation counting based radiometry assay relative to control
Chain of Ribosomal protein S6 kinase alpha-5 (Homo sapiens) (O75582 whole entry, looked up): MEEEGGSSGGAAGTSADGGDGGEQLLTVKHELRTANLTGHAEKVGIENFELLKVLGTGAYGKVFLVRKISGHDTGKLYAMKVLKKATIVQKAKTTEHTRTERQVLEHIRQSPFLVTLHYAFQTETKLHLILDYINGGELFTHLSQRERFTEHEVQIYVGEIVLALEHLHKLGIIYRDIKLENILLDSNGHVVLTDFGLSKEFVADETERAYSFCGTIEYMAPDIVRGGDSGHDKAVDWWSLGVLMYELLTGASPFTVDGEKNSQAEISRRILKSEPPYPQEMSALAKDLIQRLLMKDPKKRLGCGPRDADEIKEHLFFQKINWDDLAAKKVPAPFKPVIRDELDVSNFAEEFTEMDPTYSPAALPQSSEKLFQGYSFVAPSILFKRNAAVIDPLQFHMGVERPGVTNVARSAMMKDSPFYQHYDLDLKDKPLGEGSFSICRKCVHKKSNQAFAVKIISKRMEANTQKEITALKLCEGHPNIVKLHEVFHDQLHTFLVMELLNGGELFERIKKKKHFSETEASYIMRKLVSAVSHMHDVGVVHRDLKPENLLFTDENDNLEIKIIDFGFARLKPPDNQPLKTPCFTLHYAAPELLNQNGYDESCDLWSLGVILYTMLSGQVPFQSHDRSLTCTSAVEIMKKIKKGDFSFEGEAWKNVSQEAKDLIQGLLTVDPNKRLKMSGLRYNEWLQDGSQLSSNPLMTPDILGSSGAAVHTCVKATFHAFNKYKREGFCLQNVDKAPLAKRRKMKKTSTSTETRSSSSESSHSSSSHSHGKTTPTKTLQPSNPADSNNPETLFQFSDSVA

[17] = molecular target: Tyrosine-protein kinase FRK (Homo sapiens) (UniProt P42685); experiment: Inhibition of recombinant human PTK5 (218 to end residues) assessed as residual activity at 10 uM using GGEEEEYFELVKKKK as substrate incubated for 40 mins in presence of [gamma33P]ATP by scintillation counting based radiometry assay relative to control
[18] = test system: Epidermal growth factor receptor (Homo sapiens), P00533 [T790M]; experiment: Inhibition of recombinant human EGFR T790M mutant (696 to end residues) assessed as residual activity at 10 uM using poly(Glu, Tyr) 4:1 as substrate at 40 mins in presence of [gamma-33ATP] by scintillation counting based radiometry assay relative to control
[19] = molecular target: Serine/threonine-protein kinase pim-3 (Homo sapiens) (UniProt Q86V86); experiment: Inhibition of recombinant human Pim3 (2 to end residues) assessed as residual activity at 10 uM using RSRHSSYPAG as substrate incubated for 40 mins in presence of [gamma33P]ATP by scintillation counting based radiometry assay relative to control
[20] = molecular target: Myosin light chain kinase, smooth muscle (Homo sapiens) (UniProt Q15746); experiment: Inhibition of recombinant human MLCK (1425 to 1771 residues) assessed as residual activity at 10 uM using […] incubated for 40 mins in presence of [gamma-33ATP by scintillation counting based radiometry assay relative to control
Chain of Myosin light chain kinase, smooth muscle (Homo sapiens) (Q15746 whole entry, the tested form may be a part): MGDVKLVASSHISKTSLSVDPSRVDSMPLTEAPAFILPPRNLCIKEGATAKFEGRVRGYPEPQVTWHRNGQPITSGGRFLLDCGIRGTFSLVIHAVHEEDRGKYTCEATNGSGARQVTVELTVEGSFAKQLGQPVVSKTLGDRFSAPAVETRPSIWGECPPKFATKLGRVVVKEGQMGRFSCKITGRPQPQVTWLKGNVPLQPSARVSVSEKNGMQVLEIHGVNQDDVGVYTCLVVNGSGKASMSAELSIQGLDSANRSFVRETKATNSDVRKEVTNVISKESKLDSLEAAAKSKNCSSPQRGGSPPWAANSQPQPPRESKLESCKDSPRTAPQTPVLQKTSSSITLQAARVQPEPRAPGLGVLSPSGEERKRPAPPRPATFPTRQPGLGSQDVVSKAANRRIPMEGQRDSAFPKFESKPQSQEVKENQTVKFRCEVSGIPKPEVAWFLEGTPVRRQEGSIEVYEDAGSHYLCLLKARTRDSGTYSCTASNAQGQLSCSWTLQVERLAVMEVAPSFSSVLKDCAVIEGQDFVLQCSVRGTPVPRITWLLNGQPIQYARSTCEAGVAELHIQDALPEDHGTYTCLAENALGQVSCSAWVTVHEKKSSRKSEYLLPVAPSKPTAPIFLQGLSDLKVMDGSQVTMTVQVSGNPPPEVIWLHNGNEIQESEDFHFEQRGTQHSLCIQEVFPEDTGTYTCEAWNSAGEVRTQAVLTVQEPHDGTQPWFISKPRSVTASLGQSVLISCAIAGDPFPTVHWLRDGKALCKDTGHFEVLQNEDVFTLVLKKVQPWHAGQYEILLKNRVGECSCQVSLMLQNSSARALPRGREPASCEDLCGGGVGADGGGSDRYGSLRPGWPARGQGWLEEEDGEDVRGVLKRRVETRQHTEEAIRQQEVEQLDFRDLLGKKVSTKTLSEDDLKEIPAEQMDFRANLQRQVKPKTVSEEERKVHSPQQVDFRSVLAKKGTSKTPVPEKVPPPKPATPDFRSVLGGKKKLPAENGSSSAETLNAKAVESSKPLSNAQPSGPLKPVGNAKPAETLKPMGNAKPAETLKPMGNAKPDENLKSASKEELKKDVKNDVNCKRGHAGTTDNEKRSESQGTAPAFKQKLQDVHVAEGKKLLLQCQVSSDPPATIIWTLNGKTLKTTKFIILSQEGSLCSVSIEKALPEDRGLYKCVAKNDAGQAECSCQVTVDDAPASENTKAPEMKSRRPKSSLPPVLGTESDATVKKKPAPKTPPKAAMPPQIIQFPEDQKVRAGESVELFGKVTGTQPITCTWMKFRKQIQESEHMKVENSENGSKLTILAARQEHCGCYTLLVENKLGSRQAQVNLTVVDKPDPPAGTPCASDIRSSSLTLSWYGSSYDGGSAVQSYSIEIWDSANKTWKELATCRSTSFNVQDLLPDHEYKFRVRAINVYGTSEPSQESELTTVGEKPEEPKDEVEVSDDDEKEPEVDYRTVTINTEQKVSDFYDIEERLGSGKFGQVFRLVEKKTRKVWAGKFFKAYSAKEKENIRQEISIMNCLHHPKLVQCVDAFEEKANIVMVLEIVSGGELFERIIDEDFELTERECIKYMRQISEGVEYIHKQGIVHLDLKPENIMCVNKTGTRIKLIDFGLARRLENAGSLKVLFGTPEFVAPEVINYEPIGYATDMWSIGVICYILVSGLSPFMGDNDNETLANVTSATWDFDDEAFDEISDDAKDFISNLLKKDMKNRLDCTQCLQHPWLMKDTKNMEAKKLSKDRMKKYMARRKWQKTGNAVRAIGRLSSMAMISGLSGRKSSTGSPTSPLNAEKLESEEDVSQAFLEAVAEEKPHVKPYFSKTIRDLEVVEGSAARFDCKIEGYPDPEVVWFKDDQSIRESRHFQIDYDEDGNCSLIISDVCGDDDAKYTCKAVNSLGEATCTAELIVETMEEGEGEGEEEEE

C[C@@H](c1ccccc1)n1nnc2cnc3ccc(-c4cnc5[nH]ccc5c4)cc3c21
Activity [1]: 96% | Activity [2]: 2% | Activity [3]: 67% | Activity [4]: 97% | Activity [5]: 71% | Activity [6]: 30% | Activity (Mus musculus): -1% | Activity [7]: 87% | Activity [8]: 72% | Activity [9]: 39% | Activity [10]: 6% | Activity [11]: 80% | Activity [12]: 71% | Activity [13]: 120% | Activity [14]: 88% | Activity [15]: 109% | Activity [16]: 55% | Activity [17]: 7% | Activity [18]: 59% | Activity [19]: 83% | Activity [20]: 61%
